Test [1] has as its system B16 melanoma. In words: Established s.c. B16 melanoma, i.t. DC plus i.p. RG-115830. The class given is in vivo, C57BL/6 mice. The following applies: RG-115830 alone, or DC.RheoIL12 in the absence of RG-115830. The protocol: B6 mice received subcutaneous injection of 1×10^5 B16 melanoma cells in the right flank on day 0. On day 7, tumors reached a size of approximately 20-30 mm^2 and mice were treated with i.t. injections of PBS or 1×10^6 control vs. adenoviral transduced (MOI=100) DC in a total volume of 50 μl of PBS. Mice also received i.p. injections of 200 μg RG-115830 (in 50 μl DMSO) vs. DMSO carrier control that were initiated at 0 h, 24 h or 48 h post-DC administration, as indicated. After initiation, mice received a total of 5 consecutive daily intraperitoneal injections of RG-115830 at this dose. In additional experiments, ligand was administered beginning on the day of DC injection and then terminated 1, 3 or 5 days post-DC injection to discern whether early cessation of IL-12p70 transgene promotion reduced the therapeutic benefits of this approach. In all cases, tumor size was assessed every 3 or 4 days and recorded in mm^2 by determining the product of the largest perpendicular diameters measured by vernier calipers. Data are reported as the average tumor area±SD. All animal cohorts contained 5 mice/group.
B16 melanoma cells (1×10^5) were injected s.c. in the […] flank of syngenic H-2^b B6 mice and allowed to establish. On day 7, mice were randomized into cohorts of 5 animals each, with a mean cohort tumor size of approximately 20-30 mm^2. […]

For test [2], the system named is DC infected with rAd.RheoIL12 (DC.RheoIL12). In words: IL-12p70 secretion by adenovirus-infected murine BM-derived DC (ELISA). The class given is cell-based, mouse. On the procedure: DCs were generated from murine bone marrow as previously described (Tatsumi et al., 2003). Briefly, wild-type or EGFP Tg mouse BM was cultured in CM supplemented with 1000 units/ml recombinant murine granulocyte/macrophage colony-stimulating factor and recombinant mIL-4 (Peprotech, Rocky Hill, N.J.) at 37° C. in a humidified, 5% CO2 incubator for 7 days. CD11c^+ DC were then isolated using specific MACSTM beads, per the manufacturer's protocol (Miltenyi Biotec, Auburn, Calif.). CD11c^+ DC produced in this manner were >95% pure based on morphology and co-expression of the CD11b, CD40, CD80, and class I and class II MHC antigens.
Day 7 cultured DC were untreated, were infected with recombinant Ads encoding murine IL-12p70 driven off a constitutive (rAd.cIL12) or inducible (rAd.RheoIL12) promoter, or were infected with mock, control vector rAdψ5, over a range of MOIs. At various time points after this (0-48 h), DC were then cultured in the absence or presence of an activating ligand (10-200 μg/ml) for an additional 24 h prior to analysis of IL-12p70 secretion using a specific ELISA kit (BDPharMingen, San Diego, Calif.; lower level of detection=62.5 pg/ml). […] Alternatively, after 48 h, infected DC were harvested and analyzed for phenotype and for production of IL-12p70 using the ELISA kit (BD-PharMingen, San Diego, Calif.), with a lower level of detection of 62.5 pg/ml. […]

Another test concerns GL261 gliomas. Nature of the test: Intracranial GL261 glioma survival, i.t. transduced DC plus i.p. RG-115830. The class given is in vivo, mice. The settings on record: at 50 days; DC expressing IFN-alpha and IL-12 under RTS, RG-115830 intra-peritoneal. An excerpt:
Abbreviations in this figure are as follows: Ad-IFNa is Adenoviral vector constitutively expressing IFN-alpha; Ad-RTS-IFNa is Adenoviral vector encoding IFN-alpha under RTS control; Ad-RTS-IFNa no ligand is Adenoviral vector containing RTS and IFN-alpha where no activator ligand was present; Ad-IFNa/IL-12 corresponds to DC transduced with Adenoviral vectors encoding IFN-alpha and IL-12; and Ad-RTS-IFNa/IL-12 corresponds to DC transduced with two Adenoviral vectors encoding IFN-alpha and IL-12 under RTS control.
In this example, dendritic cells were isolated from bone marrow, transduced with the Adenoviral constructs depicted in FIG. 7, and mice bearing syngeneic intracranial GL261 gliomas were intratumorally injected with engineered dendritic cells; and RG-115830 was injected intra-peritoneal. […] The data reveal that ligand induced expression of IFN-alpha and IL-12 through activation of the RTS with RG-115830 ligand promoted 75 percent survival at 50 days of GL261 glioma mice; as compared to IFN-alpha expression alone. Furthermore, the control provided by the RheoSwitch and ligand promoted enhanced survival.

For test [3], the system named is human and mouse cell lines and primary dendritic cells transduced with recombinant adenoviral vector carrying the genes for IL12. In words: IL12 induction in cell lines and primary DC transduced with IL12 adenoviral vector. The class given is cell-based. The following applies: in vitro.
Another test relates to B16 melanomas. Nature of the test: Ligand route/dose comparison with i.t. DC.SP1-IL12 in B16 melanoma. The class given is in vivo, B6 mice. On the procedure: B16 melanomas were established s.c. for 7 days in the right flanks of syngenic B6 mice. On day 7, 10^6 DC.SP1-IL12 (optimal switch identified in FIG. 10 comparison) were injected intratumorally (i.t.). Activating ligand (RG-115932) was provided either as an injection i.p., via oral gavage in Labrasol, or via drug-containing chow provided ad libitum beginning on the day preceding DC injection (and daily thereafter for 6 days). Each cohort contained 5 animals, with tumor growth monitored every 3-4 days and reported as mean size (mm^2 based on the product of orthogonal measurements). The treatment for each cohort is described below.

The test system of test [4] is mouse dendritic cells transduced with Ad-RTS-mIL-12. Nature of the test: Activator Drug dose-dependent IL-12 expression in mouse DC transduced with Ad-RTS-mIL-12. The class given is cell-based. The following applies: varying doses of Activator Drug.
A further test deals with RTS. Nature of the test: Activation of the RTS by ligand enantiomer. The settings on record: R enantiomer versus racemic mixture. On the procedure: DC-SP1 i.t. therapy using i.p. administered ligand yielded a clear ligand dose-tumor inhibition response pattern, with optimal anti-tumor effects at ligand doses >30 mg/kg/day. […] 20-22.5 mg/kg/day of the active enantiomer. […] The availability of oral administration of the ligand would ease the burden of the treatment on patients.
The recombinant DNA used as the recombinant adenoviral vector allows the expression of human IL-12 under the control of the RheoSwitch® Therapeutic System (RTS). The RTS comprises a bicistronic message expressed from the human Ubiquitin C promoter and codes for two fusion proteins: Gal4-EcR and VP16-RXR. Gal4-EcR is a fusion between the DNA binding domain (amino acids 1-147) of yeast Gal4 and the DEF domains of the ecdysone receptor from the insect Choristoneura fumiferana. […] VP16-RXR is a fusion between the transcription activation domain of HSV-VP16 and the EF domains of a chimeric RXR derived from human and locust sequences. […]

Test [5] deals with human dendritic cells transduced with adenoviral vector Ad-RTS-mIL-12. Nature of the test: IL-12 production by human DC transduced with Ad-RTS-mIL-12. The class given is cell-based. The following applies: 3 hour viral adsorption at MOI of 500. An excerpt:
The activator drug (“AD” or “activating ligand”) induced IL-12 expression in these transduced human dendritic cells.

In test [6] the test system is B16 melanoma. In words: DC dose and duration of ligand administration in B16 melanoma. The class given is in vivo, B6 mice. On the procedure: Tumor bearing mice were given a single intratumoral injection of AdDCs at doses of 10^5, 10^6, and 10^7 cells and daily i.p. injection of Activating Ligand at a single dose of 30 mg/kg/day for 6 days or 13 days beginning on the day of the injection of 10^7 cells. […] There was no effect of the Activating Ligand alone (without AdDCs) on tumor growth.
In a similar experiment to FIG. 12, the Activating Ligand was administered by oral gavage for 9 and 12 days. The anti-tumor dose response with an oral formulation of the Activating Ligand at different doses in Labrasol was assessed.
B16 melanomas were established s.c. for 7 days in the right flanks of 5 syngeneic B6 mice. On day 7, DC.SP1-IL-12 (bone marrow derived DC infected at an MOI of 100 using the SP1 optimal switch) were injected intratumorally (i.t.) at doses of 10E5, 10E6 or 10E7. RG-115932 was provided by i.p. injection beginning on the day of DC injection (and daily thereafter for either 6 days or 13 days). Each cohort contained 5 animals, with tumor growth monitored every 3-4 days and reported as mean size (mm squared based on the product of orthogonal measurements). Individual animal weights were also assessed at the time of tumor measurements (FIG. 13). All animals rendered free of disease by any therapy were rechallenged on day 50 (post-initial B16 tumor inoculation) with 10E5 B16 melanoma cells on the opposite flank (left flank) of the original tumor and with 10E5 MC38 colon carcinoma cells on the right flank. Tumor growth was monitored every 3-4 days and compared against growth observed in naïve (untreated) animals (see FIG. 12).

`CCCC(N(NC(=O)c1cccc(OC)c1CC)C(=O)c1cc(C)cc(C)c1)C(C)(C)C` (centres unmarked) [RG-115830, 3,5-Dimethyl-benzoic acid N-(1-tert-butyl-butyl)-N′-(2-ethyl-3-methoxy-benzoyl)-hydrazide]: in the test with B16 melanoma [1], the therapeutic benefit result is recorded as “failed to yield any therapeutic benefit”. In addition, in test [2] (MOI of 100), the “RG-115830 concentration for optimal infected DC production of IL-12p70” value was 50 to 200 µg/mL. Also, in test [2] (delayed for up to 48 h compared to 0 h timepoint), the “IL-12p70 production after delayed provision of RG-115830” value is “did not result in any significantly reduced production of IL-12p70”. Further, the survival in the test with GL261 gliomas worked out at 75%.
For `CCC[C@@H](N(NC(=O)c1cccc(OC)c1CC)C(=O)c1cc(C)cc(C)c1)C(C)(C)C` [RG-115932, (R)-3,5-Dimethyl-benzoic acid N-(1-tert-butyl-butyl)-N′-(2-ethyl-3-methoxy-benzoyl)-hydrazide], the IL12 expression entry in test [3] is listed as “induction of IL12 expression in response to the activator drug in a dose dependent way”. Also, the “efficacy by route of ligand administration” value in the test with B16 melanomas (DC-SP1 i.t. therapy, ligand 30 mg/kg/day) is recorded as “equally effective if ligand is administered by i.p. injection, oral gavage, or diet admix”. The “ligand dose giving optimal anti-tumor effects” value in the test on B16 melanomas (DC-SP1 i.t. therapy, ligand i.p.) was > 30 mg/kg/day. The “efficacy by route in mouse melanoma model” value with B16 melanomas (DCs transduced with murine IL-12 under RTS) was “effective in intraperitoneal and oral routes”. Moreover, in the test with B16 melanomas (no DC, any dose or any route), the “B16 tumor growth, ligand alone” value is reported as “had no impact on B16 tumor growth”. Moreover, the IL-12 production entry in test [4] is “produced IL-12 in a dose dependent manner”. For the same compound, the “activation of the RTS” value in the test on RTS was “capable of activating the RTS”. Also, the IL-12 expression result in [5] is “induced IL-12 expression in these transduced human DCs”. The tumor regression result in the test on B16 melanoma [6] (13 days in a row with 10^7 dendritic cells) is listed as “effective in causing tumor regression over a 25 day period”. The “suppression of tumor growth, 13 days instead of 6 days of ligand” value with B16 melanoma [6] (i.p. 30 mg/kg/day with AdDCs) is recorded as “significantly more robust suppression of tumor growth”. Besides, the “anti-tumor dose response, oral ligand” value with B16 melanoma [6] (oral gavage in Labrasol for 9 and 12 days) is given as “dose dependent anti-tumor effect”. Also, the “oral dose with the greatest responses” value in the test with B16 melanoma [6] (orally for 12 days, Labrasol) is reported as 50 mg/kg/day. The “tumor growth, ligand alone” value in the test on B16 melanoma [6] (without AdDCs) was “no effect”.

Values taken from US9675642B2, “Engineered dendritic cells and uses for the treatment of cancer” (Intrexon Corporation, priority 2007, dated 2017).
